Where a SMILES comes first, the peptide text is derived from it. The star is where a group is joined. Octyl = CCCCCCCC*
What was measured:
[1] = biological target: T1, human ghrelin receptor (GHSR1a) (Homo sapiens, UniProt Q92847); test: Ghrelin receptor functional assay (Ca2+ induction, Fluo-4, FLIPR) in HEK293 cells stably expressing the human ghrelin receptor; type: cell-based; conditions: HEK293 cell line stably expressing human GHSR1a
T1 construct: expressed in transfected cells; plasmid pIRESneo2dNGFR
Excerpt: To test activation of the ghrelin receptor, stable cell lines expressing the human ghrelin receptor were produced. In brief, HEK293 cells were used for transfection of the cDNA for human ghrelin receptor cloned into the transfection plasmid pIRESneo2dNGFR. […] The DNA encoding the ghrelin receptor was amplified by PCR using primers also encoding terminal restriction sites for subcloning. The ghrelin receptor was subcloned into a mammalian expression vector containing a neomycin (G418) resistance marker. The fidelity of the DNA encoding the receptor was confirmed by DNA sequencing. HEK293 cells were used for transfection of the ghrelin receptor expression plasmid. The cells were grown according to standard protocol in growth medium and transfected with the plasmids using Lipofectamin (Invitrogen) according to the manufacturer's protocol. […]
The plate with test compounds was pre-warmed before starting the measurements. […] The program measures basal level of fluorescence of Fluo-4 for 10 seconds, adds 100 μl of peptide solution to the cells and measures the change in fluorescence as a consequence of the changes in Ca^2+ concentration in the cells. The output used for calculation of activity was selected to be the maximal response (expressed as a ratio to the basal level. EC50 values) and maximal response values were determined based on these values.

[2] = tested on: normal chow-fed C57BL/6J male mice; test: Effect on food intake in normal mice (HM-2 automated monitoring); type: in vivo, mouse; conditions: 300 nmol/kg s.c. once, light phase 0-6 h, modified protocol (food access re-opened 2 h after dosing)
Experimental: Normal chow-fed C57BL/6J male mice were used. The mice were kept in an automated food- and water-intake monitoring system (HM-2) which allows automated on-line measurements of accumulated food intake (FI) and other parameters. Food intake was monitored by the HM-2 system up to 24 h after dosing. The mice were kept 6 per cage, and each dosing group consisted of 6 animals.
In the initial experimental set-up with ghrelin as test compound, animals were allowed free access to food directly after treatment, and the resulting data for food intake are shown in FIG. 1A herein (vide infra).
In order to further investigate the “duration of action” of ghrelin and the other test compounds a new protocol was defined. In the modified protocol the gate to the food chambers was closed prior to dosing with vehicle or test compound and was re-opened 2 hours thereafter. The resulting data for food intake following dosing with ghrelin or vehicle are summarized in FIG. 1B (vide infra), while the corresponding data for food intake following dosing with each of the of the other four test compounds. (Compound 16, 22, 23 or 43 of the invention) or with vehicle are summarized in FIG. 2A (data for monitoring up to 6 hours after dosing) and FIG. 2B (data for monitoring up to 24 hours after dosing).

T1 sequence (Q92847 whole entry): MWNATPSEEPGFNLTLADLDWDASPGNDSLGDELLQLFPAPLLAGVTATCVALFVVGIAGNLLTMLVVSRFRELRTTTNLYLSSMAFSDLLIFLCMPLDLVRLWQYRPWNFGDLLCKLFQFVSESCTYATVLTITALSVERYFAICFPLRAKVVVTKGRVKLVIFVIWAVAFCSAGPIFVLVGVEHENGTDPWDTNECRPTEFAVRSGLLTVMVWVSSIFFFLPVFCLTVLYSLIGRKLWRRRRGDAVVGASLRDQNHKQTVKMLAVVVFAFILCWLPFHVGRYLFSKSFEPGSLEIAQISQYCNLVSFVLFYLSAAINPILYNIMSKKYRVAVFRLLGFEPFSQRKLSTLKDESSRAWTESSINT

CC(C)C[C@H](NC(=O)[C@H](CCCCN)NC(=O)[C@H](C)NC(=O)[C@@H]1CCCN1C(=O)[C@@H]1CCCN1C(=O)[C@H](CCCCN)NC(=O)[C@H](CCCCN)NC(=O)[C@H](CO)NC(=O)[C@H](CCC(=O)O)NC(=O)[C@H](CCCCN)NC(=O)[C@H](CCCNC(=N)N)NC(=O)[C@H](CCC(N)=O)NC(=O)[C@H](CCC(N)=O)NC(=O)[C@H](C)NC(=O)[C@H](CCCCN)NC(=O)[C@H](CCC(N)=O)NC(=O)[C@H](Cc1c[nH]cn1)NC(=O)[C@H](CCC(=O)O)NC(=O)[C@@H]1CCCN1C(=O)[C@H](CO)NC(=O)[C@H](CC(C)C)NC(=O)[C@H](Cc1ccccc1)NC(=O)[C@H](CO)NC(=O)[C@H](CO)NC(=O)CN)C(=O)N[C@@H](CCC(N)=O)C(=O)N1CCC[C@H]1C(=O)N[C@@H](CCCNC(=N)N)C(=O)O [Compound 4, reference compound]
EC50 [1]: > 1000 nM

CCCCCCCCOC[C@H](NC(=O)[C@H](CO)NC(=O)[C@@H]1CCCN1)C(=O)N[C@@H](Cc1ccccc1)C(=O)N[C@@H](CC(C)C)C(=O)N[C@@H](CO)C(=O)N1CCC[C@H]1C(=O)N[C@@H](CCC(=O)O)C(=O)N[C@@H](Cc1c[nH]cn1)C(=O)N[C@@H](CCC(N)=O)C(=O)N[C@@H](CCCNC(=N)N)C(=O)N[C@H](C(=O)N[C@@H](CCC(N)=O)C(=O)N[C@@H](CCCNC(=N)N)C(=O)N[C@@H](CCCCN)C(=O)N[C@@H](CCC(=O)O)C(=O)N[C@@H](CO)C(=O)N[C@@H](CCCCN)C(=O)N[C@@H](CCCCN)C(=O)N1CCC[C@H]1C(=O)N1CCC[C@H]1C(=O)N[C@@H](C)C(=O)N[C@@H](CCCCN)C(=O)N[C@@H](CC(C)C)C(=O)N[C@@H](CCC(N)=O)C(=O)N1CCC[C@H]1C(=O)N[C@@H](CCCNC(=N)N)C(N)=O)C(C)C [Compound 38] (H-PSS(Octyl)FLSPEHQRVQRKESKKPPAKLQPR-NH2)
EC50 [1]: 0.33 nM

CCCCCCCCOC[C@H](NC(=O)[C@H](CO)NC(=O)[C@@H]1CCCN1)C(=O)N[C@@H](Cc1ccccc1)C(=O)N[C@@H](CC(C)C)C(=O)N[C@@H](CO)C(=O)N1CCC[C@H]1C(=O)N[C@@H](CCC(=O)O)C(=O)N[C@@H](Cc1c[nH]cn1)C(=O)N[C@@H](CO)C(=O)N[C@@H](CCCNC(=N)N)C(=O)N1CCC[C@H]1C(=O)N[C@@H](CO)C(=O)N[C@@H](CO)C(=O)N[C@@H](CCCNC(=N)N)C(N)=O [Compound 48] (H-PSS(Octyl)FLSPEHSRPSSR-NH2)
Accumulated FI at 6h [2]: 0 ± 0 g

CCCCCCCCOC[C@H](NC(=O)[C@H](CO)NC(=O)[C@@H]1CCCN1)C(=O)N[C@@H](Cc1ccccc1)C(=O)N[C@@H](CC(C)C)C(=O)N[C@@H](CO)C(=O)N1CCC[C@H]1C(=O)N[C@@H](CCC(=O)O)C(=O)N[C@@H](Cc1c[nH]cn1)C(=O)N[C@@H](CO)C(=O)N[C@@H](CCCNC(=N)N)C(=O)N[C@H](C(=O)N[C@@H](CO)C(=O)N[C@@H](CO)C(=O)N[C@@H](CCCNC(=N)N)C(=O)N1CCC[C@H]1C(=O)N[C@@H](CCC(=O)O)C(=O)N[C@@H](CO)C(=O)N[C@@H](CO)C(=O)N[C@@H](CO)C(=O)N1CCC[C@H]1C(=O)N1CCC[C@H]1C(=O)N[C@@H](C)C(=O)N[C@@H](CCCCN)C(=O)N[C@@H](CC(C)C)C(=O)N[C@@H](CO)C(=O)N1CCC[C@H]1C(=O)N[C@@H](CCCNC(=N)N)C(N)=O)C(C)C [Compound 49] (H-PSS(Octyl)FLSPEHSRVSSRPESSSPPAKLSPR-NH2)
Accumulated FI at 6h [2]: 0.6 ± 0.09 g

CCCCCCCCOC[C@H](NC(=O)[C@H](CO)NC(=O)[C@@H]1CCCN1)C(=O)N[C@@H](Cc1ccccc1)C(=O)N[C@@H](CC(C)C)C(=O)N[C@@H](CO)C(=O)N1CCC[C@H]1C(=O)N[C@@H](CCC(=O)O)C(=O)N[C@@H](Cc1c[nH]cn1)C(=O)N[C@@H](CO)C(=O)N[C@@H](CCCNC(=N)N)C(=O)N1CCC[C@H]1C(=O)N[C@@H](CO)C(=O)N[C@@H](CO)C(=O)N[C@@H](CCCNC(=N)N)C(=O)N1CCC[C@H]1C(=O)N[C@@H](CCC(=O)O)C(=O)N[C@@H](CO)C(=O)N[C@@H](CO)C(=O)N[C@@H](CO)C(=O)N1CCC[C@H]1C(=O)N1CCC[C@H]1C(=O)N[C@@H](C)C(=O)N[C@@H](CCCCN)C(=O)N[C@@H](CC(C)C)C(=O)N[C@@H](CO)C(=O)N1CCC[C@H]1C(=O)N[C@@H](CCCNC(=N)N)C(N)=O [Compound 50] (H-PSS(Octyl)FLSPEHSRPSSRPESSSPPAKLSPR-NH2)
Accumulated FI at 6h [2]: 0.19 ± 0.05 g

Source: patent US9657062B2, “Ghrelin analogues” (Zealand Pharma A/S, priority 2012, dated 2017)
